{"source": "ChEMBL document CHEMBL3046723", "about": "“Ionic liquids with herbicidal anions” (Tetrahedron, 2011)", "key": {"Consolida regalis [1]": {"test_system": "Consolida regalis", "test": "Herbicidal activity against Consolida regalis in winter wheat crop field at 600 g/ha applied at the end of tillering stage of crop measured at 4 weeks post-drug dosage", "type": "functional"}, "Triticum aestivum [2]": {"test_system": "Triticum aestivum", "test": "Increase in winter Triticum aestivum (wheat) crop yield assessed as weight of 1000 grains at 600 g/ha applied at the end of tillering stage of crop measured at 4 weeks post-drug dosage (reference value: 37.79 g)", "type": "functional"}, "[3]": {"test": "Acute toxicity in po dosed Rattus norvegicus Wistar (rat)", "type": "organism-based", "details": "in vivo"}, "Triticum aestivum [4]": {"test_system": "Triticum aestivum", "test": "Increase in winter Triticum aestivum (wheat) crop yield assessed as gluten content at 600 g/ha applied at the end of tillering stage of crop measured at 4 weeks post-drug dosage (reference value: 25.95%)", "type": "functional"}, "Triticum aestivum [5]": {"test_system": "Triticum aestivum", "test": "Increase in winter Triticum aestivum (wheat) crop yield at 600 g/ha applied at the end of tillering stage of crop measured at 4 weeks post-drug dosage (reference value: 7.40 t/ha)", "type": "functional"}, "Triticum aestivum [6]": {"test_system": "Triticum aestivum", "test": "Increase in winter Triticum aestivum (wheat) crop yield assessed as protein content at 600 g/ha applied at the end of tillering stage of crop measured at 4 weeks post-drug dosage (reference value: 11.12%)", "type": "functional"}, "Matricaria [7]": {"test_system": "Matricaria", "test": "Herbicidal activity against Matricaria inodora in winter wheat crop field at 600 g/ha applied at the end of tillering stage of crop measured at 4 weeks post-drug dosage", "type": "functional"}, "Brassica napus [8]": {"test_system": "Brassica napus", "test": "Herbicidal activity against Brassica napus (oilseed rape) in winter wheat crop field at 600 g/ha applied at the end of tillering stage of crop measured at 4 weeks post-drug dosage", "type": "functional"}, "Thlaspi arvense [9]": {"test_system": "Thlaspi arvense", "test": "Herbicidal activity against Thlaspi arvense in winter wheat crop field at 600 g/ha applied at the end of tillering stage of crop measured at 4 weeks post-drug dosage", "type": "functional"}, "Consolida regalis [10]": {"test_system": "Consolida regalis", "test": "Herbicidal activity against Consolida regalis in winter wheat crop field at 900 g/ha applied at the end of tillering stage of crop measured at 4 weeks post-drug dosage", "type": "functional"}, "Triticum aestivum [11]": {"test_system": "Triticum aestivum", "test": "Increase in winter Triticum aestivum (wheat) crop yield assessed as weight of 1000 grains at 900 g/ha applied at the end of tillering stage of crop measured at 4 weeks post-drug dosage (reference value: 37.79 g)", "type": "functional"}, "Triticum aestivum [12]": {"test_system": "Triticum aestivum", "test": "Increase in winter Triticum aestivum (wheat) crop yield at 900 g/ha applied at the end of tillering stage of crop measured at 4 weeks post-drug dosage (reference value: 7.40 t/ha)", "type": "functional"}, "Triticum aestivum [13]": {"test_system": "Triticum aestivum", "test": "Increase in winter Triticum aestivum (wheat) crop yield assessed as protein content at 900 g/ha applied at the end of tillering stage of crop measured at 4 weeks post-drug dosage (reference value: 11.12%)", "type": "functional"}, "Thlaspi arvense [14]": {"test_system": "Thlaspi arvense", "test": "Herbicidal activity against Thlaspi arvense in winter wheat crop field at 900 g/ha applied at the end of tillering stage of crop measured at 4 weeks post-drug dosage", "type": "functional"}, "Brassica napus [15]": {"test_system": "Brassica napus", "test": "Herbicidal activity against Brassica napus (oilseed rape) in winter wheat crop field at 900 g/ha applied at the end of tillering stage of crop measured at 4 weeks post-drug dosage", "type": "functional"}, "Matricaria [16]": {"test_system": "Matricaria", "test": "Herbicidal activity against Matricaria inodora in winter wheat crop field at 900 g/ha applied at the end of tillering stage of crop measured at 4 weeks post-drug dosage", "type": "functional"}, "Triticum aestivum [17]": {"test_system": "Triticum aestivum", "test": "Increase in winter Triticum aestivum (wheat) crop yield assessed as gluten content at 900 g/ha applied at the end of tillering stage of crop measured at 4 weeks post-drug dosage (reference value: 25.95%)", "type": "functional"}, "Chenopodium album": {"test_system": "Chenopodium album", "test": "Herbicidal activity against Chenopodium album measured at 4 weeks post-drug dosage", "type": "functional, organism-based"}, "Centaurea cyanus": {"test_system": "Centaurea cyanus", "test": "Herbicidal activity against Centaurea cyanus measured at 4 weeks post-drug dosage", "type": "functional, organism-based"}, "Myosotis arvensis": {"test_system": "Myosotis arvensis", "test": "Herbicidal activity against Myosotis arvensis measured at 4 weeks post-drug dosage", "type": "functional, organism-based"}, "Triticum aestivum [18]": {"test_system": "Triticum aestivum", "test": "Reduction in Triticum aestivum (wheat) stem length applied at the end of tillering stage of crop measured at 4 weeks post-drug dosage", "type": "functional, organism-based"}, "Euphorbia helioscopia": {"test_system": "Euphorbia helioscopia", "test": "Herbicidal activity against Euphorbia helioscopia measured at 4 weeks post-drug dosage", "type": "functional, organism-based"}, "Brassica napus [19]": {"test_system": "Brassica napus", "test": "Herbicidal activity against Brassica napus (oilseed rape) measured at 4 weeks post-drug dosage", "type": "functional, organism-based"}, "Viola arvensis": {"test_system": "Viola arvensis", "test": "Herbicidal activity against Viola arvensis measured at 4 weeks post-drug dosage", "type": "functional, organism-based"}, "Thlaspi arvense [20]": {"test_system": "Thlaspi arvense", "test": "Herbicidal activity against Thlaspi arvense measured at 4 weeks post-drug dosage", "type": "functional, organism-based"}}, "note": "Active and inactive are the calls of the source. The calls are words filed in the database; no cut-off is given here."}
{"smiles": "CCCCC(CC)OC(=O)COc1ccc(Cl)cc1C", "note": "(centres undefined)", "values": [{"measurement": "Activity", "setting": "Consolida regalis [1]", "value": 95, "unit": "%"}, {"measurement": "Activity", "setting": "Triticum aestivum [2]", "value": 39.78, "unit": "g"}, {"measurement": "LD50", "setting": "[3]", "value": 1300, "unit": "mg/kg"}, {"measurement": "Activity", "setting": "Triticum aestivum [4]", "value": 27.12, "unit": "%"}, {"measurement": "Crop_yield", "setting": "Triticum aestivum [5]", "value": 7.8, "unit": "tons/ha"}, {"measurement": "Activity", "setting": "Triticum aestivum [6]", "value": 11.03, "unit": "%"}, {"measurement": "Activity", "setting": "Matricaria [7]", "value": 62, "unit": "%"}, {"measurement": "Activity", "setting": "Brassica napus [8]", "value": 100, "unit": "%"}, {"measurement": "Activity", "setting": "Thlaspi arvense [9]", "value": 100, "unit": "%"}]}
{"smiles": "C[N+](C)(C)CCl.Cc1cc(Cl)ccc1OCC(=O)[O-]", "note": "[listing 1 of 2 here]", "values": [{"measurement": "LD50", "setting": "[3]", "value": 300, "unit": "mg/kg"}]}
{"smiles": "Cc1cc(Cl)ccc1OCC(=O)[O-].[Na+]", "values": [{"measurement": "Activity", "setting": "Consolida regalis [10]", "value": 96, "unit": "%"}, {"measurement": "Activity", "setting": "Triticum aestivum [11]", "value": 39.3, "unit": "g"}, {"measurement": "Crop_yield", "setting": "Triticum aestivum [12]", "value": 7.81, "unit": "tons/ha"}, {"measurement": "Activity", "setting": "Triticum aestivum [13]", "value": 11.08, "unit": "%"}, {"measurement": "Activity", "setting": "Thlaspi arvense [14]", "value": 100, "unit": "%"}, {"measurement": "Activity", "setting": "Brassica napus [15]", "value": 100, "unit": "%"}, {"measurement": "Activity", "setting": "Matricaria [16]", "value": 56, "unit": "%"}, {"measurement": "Activity", "setting": "Triticum aestivum [17]", "value": 27.33, "unit": "%"}]}
{"smiles": "Cc1cc(Cl)ccc1OCC(=O)O", "note": "[METAXON]", "values": [{"measurement": "LD50", "setting": "[3]", "value": 962, "unit": "mg/kg"}]}
{"smiles": "C[N+](C)(C)CCCl.[Cl-]", "note": "[CHLORMEQUAT CHLORIDE]", "values": [{"measurement": "LD50", "setting": "[3]", "value": 1300, "unit": "mg/kg"}]}
{"smiles": "CCCCCCCCCC[N+](C)(C)CCCCCCCCCC.Cc1cc(Cl)ccc1OCC(=O)[O-]", "values": [{"measurement": "LD50", "setting": "[3]", "value": 300, "unit": "mg/kg"}]}
{"smiles": "C[N+](C)(C)CCl.Cc1cc(Cl)ccc1OCC(=O)[O-]", "note": "[listing 2 of 2 here]", "values": [{"measurement": "Activity", "setting": "Chenopodium album", "value": "Active"}, {"measurement": "Activity", "setting": "Centaurea cyanus", "value": "Active"}, {"measurement": "Activity", "setting": "Myosotis arvensis", "value": "Active"}, {"measurement": "inhibition", "setting": "Triticum aestivum [18]", "value": "Active"}, {"measurement": "Activity", "setting": "Euphorbia helioscopia", "value": "Active"}, {"measurement": "Activity", "setting": "Brassica napus [19]", "value": "Active"}, {"measurement": "Activity", "setting": "Viola arvensis", "value": "Active"}, {"measurement": "Activity", "setting": "Thlaspi arvense [20]", "value": "Active"}]}
